Measurements: patent publication US8889875B2, “Pyridyl derivatives as CFTR modulators” (Vertex Pharmaceuticals Incorporated, priority 2008, dated 2014)

Target: T1, ΔF508-CFTR (Homo sapiens, UniProt P13569, DEL508-508)
T1 construct: expressed in transfected cells
Test: Membrane potential optical assay, identification of correction compounds (single-addition HTS format)
Type: cell-based
Settings: PercentActivity; ΔF508-CFTR in NIH3T3 mouse fibroblasts; 16-24 hrs with compound; 10 μM forskolin and 20 μM genistein; read-out: BinnedMaxEfficacy
From the text: Membrane Potential Optical Methods for Assaying ΔF508-CFTR Modulation Properties of Compounds.
The assay utilizes fluorescent voltage sensing dyes to measure changes in membrane potential using a fluorescent plate reader (e.g., FLIPR III, Molecular Devices, Inc.) as a readout for increase in functional ΔF508-CFTR in NIH 3T3 cells. The driving force for the response is the creation of a chloride ion gradient in conjunction with channel activation by a single liquid addition step after the cells have previously been treated with compounds and subsequently loaded with a voltage sensing dye.
To identify small molecules that correct the trafficking defect associated with ΔF508-CFTR; a single-addition HTS assay format was developed. Assay Plates containing cells are incubated for ˜2-4 hours in tissue culture incubator at 37° C., 5% CO2, 90% humidity. Cells are then ready for compound exposure after adhering to the bottom of the assay plates.
The cells were incubated in serum-free medium for 16-24 hrs in tissue culture incubator at 37° C., 5% CO2, 90% humidity in the presence or absence (negative control) of test compound. The cells were subsequently rinsed 3× with Krebs Ringers solution and loaded with a voltage sensing redistribution dye. To activate ΔF508-CFTR, 10 μM forskolin and the CFTR potentiator, genistein (20 μM), were added along with Cl^−-free medium to each well. The addition of Cl^−-free medium promoted Cl^− efflux in response to ΔF508-CFTR activation and the resulting membrane depolarization was optically monitored using voltage sensor dyes.
Bath Solution #1: (in mM) NaCl 160, KCl 4.5, CaCl2 2, MgCl2 1, HEPES 10, pH 7.4 with NaOH.
Chloride-free bath solution: Chloride salts in Bath Solution #1 are substituted with gluconate salts.
NIH3T3 mouse fibroblasts stably expressing ΔF508-CFTR are used for optical measurements of membrane potential. The cells are maintained at 37° C. in 5% CO2 and 90% humidity in Dulbecco's modified Eagle's medium supplemented with 2 mM glutamine, 10% fetal bovine serum, 1×NEAA, β-ME, 1×pen/strep, and 25 mM HEPES in 175 cm^2 culture flasks. For all optical assays, the cells were seeded at ˜20,000/well in 384-well matrigel-coated plates and cultured for 2 hrs at 37° C. before culturing at 27° C. for 24 hrs. for the potentiator assay. For the correction assays, the cells are cultured at 27° C. or 37° C. with and without compounds for 16-24 hours.

T1 sequence (P13569 with tags, fused parts or gaps DEL508-508): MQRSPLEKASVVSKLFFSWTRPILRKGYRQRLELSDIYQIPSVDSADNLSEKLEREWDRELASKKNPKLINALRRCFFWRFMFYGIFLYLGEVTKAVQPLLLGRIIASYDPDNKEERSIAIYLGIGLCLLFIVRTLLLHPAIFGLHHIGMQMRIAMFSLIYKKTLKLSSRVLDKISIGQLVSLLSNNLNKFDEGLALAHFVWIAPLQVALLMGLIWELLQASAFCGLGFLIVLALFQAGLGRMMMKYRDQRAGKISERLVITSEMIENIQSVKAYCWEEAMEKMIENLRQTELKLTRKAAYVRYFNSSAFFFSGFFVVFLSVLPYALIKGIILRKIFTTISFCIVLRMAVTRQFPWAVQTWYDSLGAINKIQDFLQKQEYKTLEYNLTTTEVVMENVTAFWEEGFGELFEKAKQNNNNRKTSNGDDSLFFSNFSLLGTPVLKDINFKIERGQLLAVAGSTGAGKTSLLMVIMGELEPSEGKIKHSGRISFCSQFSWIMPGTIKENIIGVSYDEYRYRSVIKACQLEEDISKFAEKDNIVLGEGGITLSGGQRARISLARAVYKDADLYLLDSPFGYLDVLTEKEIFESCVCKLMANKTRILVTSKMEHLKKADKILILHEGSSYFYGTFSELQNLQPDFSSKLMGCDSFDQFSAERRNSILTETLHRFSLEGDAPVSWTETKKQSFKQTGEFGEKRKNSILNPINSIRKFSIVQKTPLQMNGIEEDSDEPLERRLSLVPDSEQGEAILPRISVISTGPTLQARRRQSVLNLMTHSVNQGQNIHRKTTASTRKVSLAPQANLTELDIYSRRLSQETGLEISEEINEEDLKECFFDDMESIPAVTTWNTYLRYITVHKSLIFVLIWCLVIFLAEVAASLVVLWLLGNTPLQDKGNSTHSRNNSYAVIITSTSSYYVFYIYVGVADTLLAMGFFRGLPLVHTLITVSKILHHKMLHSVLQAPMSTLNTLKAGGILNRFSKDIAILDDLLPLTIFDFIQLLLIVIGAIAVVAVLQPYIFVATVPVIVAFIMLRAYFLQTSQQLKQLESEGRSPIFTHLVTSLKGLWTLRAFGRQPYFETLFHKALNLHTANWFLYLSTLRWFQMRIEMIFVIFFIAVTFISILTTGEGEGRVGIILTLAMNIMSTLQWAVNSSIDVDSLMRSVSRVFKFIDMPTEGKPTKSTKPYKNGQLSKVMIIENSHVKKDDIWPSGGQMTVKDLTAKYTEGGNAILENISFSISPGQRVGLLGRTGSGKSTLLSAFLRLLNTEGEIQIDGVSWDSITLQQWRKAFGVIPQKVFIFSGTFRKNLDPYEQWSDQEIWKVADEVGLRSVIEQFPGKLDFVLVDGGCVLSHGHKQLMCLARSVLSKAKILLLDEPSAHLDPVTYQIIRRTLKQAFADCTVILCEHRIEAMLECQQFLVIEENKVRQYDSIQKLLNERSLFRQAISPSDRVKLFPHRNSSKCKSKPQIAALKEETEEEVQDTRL

Structure (SMILES) | Emax
COc1cccc(C2(C(=O)Nc3ccc(Cc4ccccc4OC)cn3)CC2)c1 [Compound 34] | 25 to 100%
COc1ccc(C2(C(=O)Nc3ccc(C(=O)c4ccccc4OC)cn3)CC2)cc1OC [Compound 12] | 25 to 100%
COc1ccccc1Cc1ccc(NC(=O)C2(c3ccccc3OC)CC2)nc1 [Compound 13] | 25 to 100%
CCc1ccnc(NC(=O)C2(c3ccc4c(c3)OCO4)CC2)c1 [Compound 2] | > 100%
CCCOC(c1ccc(NC(=O)C2(c3ccc4c(c3)OCO4)CC2)nc1)c1ccccc1OC (stereo not shown) [Compound 33] | > 100%
Cc1ccc(NC(=O)C2(c3ccc4c(c3)OC(F)(F)O4)CC2)nc1 [Compound 40] | > 100%
COc1ccc(C2(C(=O)Nc3cccc(C)n3)CC2)cc1 [Compound 54] | 25 to 100%
COc1ccccc1Cc1ccc(NC(=O)C2(c3ccc(C)cc3)CC2)nc1 [Compound 31] | 25 to 100%
COc1ccccc1C(c1ccc(NC(=O)C2(c3ccc4c(c3)OCO4)CC2)nc1)N1CC(C)OC(C)C1 (stereo not shown) [Compound 23] | > 100%
COc1ccccc1C(c1ccc(NC(=O)C2(c3ccc4c(c3)OCO4)CC2)nc1)N1CCCC1 (stereo not shown) [Compound 9] | > 100%
CCc1cccc(NC(=O)C2(c3ccc4c(c3)OCO4)CC2)n1 [Compound 26] | > 100%
CC(C)Cc1ccc(NC(=O)C2(c3ccc4c(c3)OCO4)CC2)nc1 [Compound 29] | > 100%
COc1ccccc1Cc1ccc(NC(=O)C2(c3ccc(Cl)cc3)CC2)nc1 [Compound 46] | > 100%
COc1ccc(Cc2cccc(NC(=O)C3(c4ccc5c(c4)OCO5)CC3)n2)cc1 [Compound 3] | > 100%
O=C(Nc1ncccc1OCc1ccccc1)C1(c2ccccc2)CC1 [Compound 41] | 25 to 100%
Cc1ccnc(NC(=O)C2(c3ccc4c(c3)OCO4)CC2)c1 [Compound 21] | > 100%
O=C(Nc1ncccc1OCc1ccccc1)C1(c2ccc3c(c2)OCO3)CC1 [Compound 48] | 25 to 100%
COc1ccccc1C(OCCN1CCCCC1)c1ccc(NC(=O)C2(c3ccc4c(c3)OCO4)CC2)nc1 (stereo not shown) [Compound 71] | 25 to 100%
CNC(c1ccc(NC(=O)C2(c3ccc4c(c3)OCO4)CC2)nc1)c1ccccc1OC (stereo not shown) [Compound 53] | > 100%
COc1ccccc1C(=O)c1ccc(NC(=O)C2(c3ccc4c(c3)OCO4)CC2)nc1 [Compound 27] | > 100%
O=C(Nc1ccc(CC2CCCCC2)cn1)C1(c2ccc3c(c2)OCO3)CC1 [Compound 16] | > 100%
CCc1ccc(C)nc1NC(=O)C1(c2ccc3c(c2)OCO3)CC1 [Compound 43] | 25 to 100%
COC[C@@H]1CCCN1C(c1ccc(NC(=O)C2(c3ccc4c(c3)OCO4)CC2)nc1)c1ccccc1OC (stereo partly shown) [Compound 51] | > 100%
COc1ccccc1Cc1ccc(NC(=O)C2(c3ccc(OC(F)(F)F)cc3)CC2)nc1 [Compound 4] | > 100%

Structure (SMILES) | Emax
COc1ccccc1C(c1ccc(NC(=O)C2(c3ccc4c(c3)OCO4)CC2)nc1)N(C)C (stereo not shown) [Compound 20] | > 100%
Cc1ccccc1Cc1cccc(NC(=O)C2(c3ccc4c(c3)OCO4)CC2)n1 [Compound 5] | > 100%
COCC1CCCN1C(c1ccc(NC(=O)C2(c3ccc4c(c3)OCO4)CC2)nc1)c1ccccc1OC (stereo not shown) [Compound 36] | > 100%
O=C(Nc1ccc(Cc2c(Cl)cccc2Cl)cn1)C1(c2ccc3c(c2)OCO3)CC1 [Compound 24] | > 100%
O=C(c1ccccc1)c1ccc(NC(=O)C2(c3ccc4c(c3)OCO4)CC2)nc1 [Compound 14] | > 100%
COc1ccccc1C(c1ccc(NC(=O)C2(c3ccc4c(c3)OCO4)CC2)nc1)N1CCN(CCO)CC1 (stereo not shown) [Compound 39] | 25 to 100%
COc1ccccc1C(c1ccc(NC(=O)C2(c3ccc4c(c3)OCO4)CC2)nc1)N1CCCCC1 (stereo not shown) [Compound 32] | > 100%
COc1ccc(C2(C(=O)Nc3ccccn3)CC2)cc1 [Compound 25] | 25 to 100%
COc1ccccc1C(=O)c1ccc(NC(=O)C2(c3ccccc3OC)CC2)nc1 [Compound 1] | 25 to 100%
O=C(Nc1ccc(C(F)(F)F)cn1)C1(c2ccc3c(c2)OCO3)CC1 [Compound 17] | 25 to 100%
O=C(Nc1ccc(F)cn1)C1(c2ccc3c(c2)OCO3)CC1 [Compound 47] | > 100%
Cc1cnc(NC(=O)C2(c3ccc4c(c3)OC(F)(F)O4)CC2)cc1-c1cccc(C(=O)O)c1 [Compound 50] | 25 to 100%
CCc1cccc(NC(=O)C2(c3ccc(OC)cc3)CC2)n1 [Compound 19] | 25 to 100%
Cc1ccc(NC(=O)C2(c3ccc4c(c3)OCO4)CC2)nc1 [Compound 42] | > 100%
COc1ccccc1C(OCCN1CCOCC1)c1ccc(NC(=O)C2(c3ccc4c(c3)OCO4)CC2)nc1 (stereo not shown) [Compound 11] | > 100%
COc1ccccc1C(c1ccc(NC(=O)C2(c3ccc4c(c3)OCO4)CC2)nc1)N1CCOCC1 (stereo not shown) [Compound 49] | > 100%
COc1ccccc1Nc1ccc(NC(=O)C2(c3ccc4c(c3)OCO4)CC2)nc1 [Compound 52] | > 100%
COCCN1CCN(C(c2ccc(NC(=O)C3(c4ccc5c(c4)OCO5)CC3)nc2)c2ccccc2OC)CC1 (stereo not shown) [Compound 22] | 25 to 100%
COc1ccccc1C(=O)c1ccc(NC(=O)C2(c3ccc(SC)cc3)CC2)nc1 [Compound 37] | > 100%
CCN(CC)C(c1ccc(NC(=O)C2(c3ccc4c(c3)OCO4)CC2)nc1)c1ccccc1OC (stereo not shown) [Compound 7] | > 100%
COc1ccccc1C(OCCN(C(C)C)C(C)C)c1ccc(NC(=O)C2(c3ccc4c(c3)OCO4)CC2)nc1 (stereo not shown) [Compound 18] | 25 to 100%
COc1ccccc1Cc1ccc(NC(=O)C2(c3ccc4c(c3)OCO4)CC2)nc1 [Compound 35] | > 100%
COc1ccc(C2(C(=O)Nc3ccc(C)cn3)CC2)cc1 [Compound 38] | 25 to 100%
COc1ccc(C2(C(=O)Nc3ccc(Cc4ccccc4OC)cn3)CC2)cc1 [Compound 8] | 25 to 100%

Now from value to compound:

Emax | Structure (SMILES)
> 100% | COc1ccccc1N(C)c1cccc(NC(=O)C2(c3ccc4c(c3)OCO4)CC2)n1 [Compound 74]
> 100% | Cc1cccc(NC(=O)C2(c3ccc4c(c3)OCO4)CC2)n1 [Compound 72]
> 100% | O=C(Nc1ccccn1)C1(c2ccc3c(c2)OCO3)CC1 [Compound 69]
25 to 100% | CCc1ccnc(NC(=O)C2(c3ccc(OC)cc3)CC2)c1 [Compound 75]
> 100% | O=C(Nc1ccc(Cc2ccccc2)cn1)C1(c2ccc3c(c2)OCO3)CC1 [Compound 63]
> 100% | O=C(Nc1cccc(Cc2ccccc2Cl)n1)C1(c2ccc3c(c2)OCO3)CC1 [Compound 78]
> 100% | COc1ccccc1C(c1ccc(NC(=O)C2(c3ccc4c(c3)OCO4)CC2)nc1)N1CCC(O)CC1 (stereo not shown) [Compound 58]
> 100% | COc1ccccc1C(OCCO)c1ccc(NC(=O)C2(c3ccc4c(c3)OCO4)CC2)nc1 (stereo not shown) [Compound 57]
> 100% | COc1ccccc1C(c1ccc(NC(=O)C2(c3ccc4c(c3)OCO4)CC2)nc1)N1CC[C@@H](O)C1 (stereo partly shown) [Compound 55]
> 100% | COc1ccccc1C(=O)c1ccc(NC(=O)C2(c3ccc(Cl)cc3)CC2)nc1 [Compound 76]
> 100% | COc1ccccc1C(=O)c1ccc(NC(=O)C2(c3ccc4c(c3)OC(F)(F)O4)CC2)nc1 [Compound 68]
> 100% | CCN(C)C(c1ccc(NC(=O)C2(c3ccc4c(c3)OCO4)CC2)nc1)c1ccccc1OC (stereo not shown) [Compound 62]
25 to 100% | N#Cc1ccc(NC(=O)C2(c3ccc4c(c3)OCO4)CC2)nc1 [Compound 65]
> 100% | COc1ccccc1C(=O)c1ccc(NC(=O)C2(c3ccc(C)cc3)CC2)nc1 [Compound 70]
> 100% | O=C(Nc1cccc(CC2CCCCC2)n1)C1(c2ccc3c(c2)OCO3)CC1 [Compound 67]
> 100% | COc1ccccc1C(OCCCO)c1ccc(NC(=O)C2(c3ccc4c(c3)OCO4)CC2)nc1 (stereo not shown) [Compound 66]
25 to 100% | COc1ccccc1C(=O)c1ccc(NC(=O)C2(c3ccccc3)CC2)nc1 [Compound 77]
> 100% | CC(C)Cc1cccc(NC(=O)C2(c3ccc4c(c3)OCO4)CC2)n1 [Compound 56]
25 to 100% | COc1ccccc1Nc1cccc(NC(=O)C2(c3ccc4c(c3)OCO4)CC2)n1 [Compound 64]
> 100% | O=C(Nc1ccc(Cc2ccccc2Cl)cn1)C1(c2ccc3c(c2)OCO3)CC1 [Compound 59]
> 100% | Cc1ccc(NC(=O)C2(c3ccc4c(c3)OC(F)(F)O4)CC2)nc1NCc1ccccc1 [Compound 73]
> 100% | COc1ccc(Cc2ccc(NC(=O)C3(c4ccc5c(c4)OCO5)CC3)nc2)cc1 [Compound 60]
